Like-named read-outs stand apart in the source and are kept apart here.
Legend:
S. pneumoniae NCTC7466 [1] = test: Mouse sepsis model, survival time; type: in vivo, BALB/c mice; conditions: i.p. infection 1 × 10^3 CFU; drug i.p. thrice a day for 3 d; untreated control 28.8 ± 1.25
Procedure: Female BALB/c mice (12–15 per group) aged 4–6 weeks were used to evaluate the antimicrobial effects of the compounds in vivo. In sepsis models, the mice were intraperitoneally infected with 100 μL S. pneumoniae NCTC7466 strain suspension (1 × 10^3 CFU). […] Two control groups were injected with 100 μL 1% DMSO (dissolved the drugs, negative control) or PEN (0.42 mg/kg/d, positive control) following the same injection route. The result was expressed as cumulative survival times following 7 d of observation.

[2] = system: Penicillin-resistant S. pneumoniae strains; test: Checkerboard test with penicillin against penicillin-resistant S. pneumoniae; type: cell-based, Streptococcus pneumoniae; conditions: agent alone; for MIC: Streptococcus pneumoniae, read-out: MIC, Alone
Procedure: (§1) Minimum inhibitory concentration (MIC) assays for the antibacterial activities of the compounds were performed according to the standard […] method of the Clinical and Laboratory Standards Institute of America. MIC testing of drug-resistant S. pneumoniae, drug-resistant S. aureus, streptococci and antimicrobial combination was also performed using the same method. Briefly, the drugs were serially diluted 2-fold into eight wells with C+Y medium, yielding final concentrations ranging from […]. Then 10^6 CFU bacteria were added to each well. Inoculated medium containing 1% DMSO served as a bacterial growth control, whereas uninoculated medium served as a sterility control. The plates were incubated at 37°C for 12–16 h. […] The experiment was repeated three times.
(§2) The antimicrobial effects of different combinations of two antimicrobial agents were assayed using the checkerboard test (Bajaksouzian et al., [1997]). Each experiment was repeated thrice. The in vitro interaction between the five drugs with PEN was quantified by the fractional inhibitory concentration (FIC). The FIC index (FICI) was calculated using the following formula:
(§3) (2) FIC=FICA+FICB=[A]/MICA+[B]/MICB
(§4) where [A] and [B] are the concentrations of drugs A and B, respectively; MICA and FICA are the MIC and FIC of drug A for the organism, respectively; and MICB, and FICB are the MIC and FIC of drug B for the organism, respectively. The FIC index obtained was interpreted as follows: =0.5, synergy; FIC > 2.0, antagonism (Gupta and Kohli, [2003]).

pneumococcal strains = test: MIC against clinical pneumococcal strains (penicillin susceptible, intermediate, resistant); type: cell-based, Streptococcus pneumoniae; conditions: for MIC50 / MIC90: Streptococcus pneumoniae; for MIC50: read-out: MIC of pneumococcal strains, MIC50; for MIC90: read-out: MIC of pneumococcal strains, MIC90
Procedure: as §1

full-length VicK protein = biological target: T1, full-length VicK protein (Streptococcus pneumoniae, UniProt Q8DPL8); test: Inhibition assay for ATPase activity of VicK (Kinase-Glo Luminescent Kinase Assay); type: biochemical; conditions: 6 μg VicK, 5 μM ATP
T1 construct: 6 His; made in house
Procedure: The inhibitory activities of the Chinese medicine monomers for the ATPase activity of the full-length VicK protein were evaluated using the Kinase-Glo™Luminescent Kinase Assay (Promega, Madison, USA). Briefly, 6 μg VicK protein was pre-incubated with a series of dilution of compounds in the reaction buffer at 37°C for 30 min. 5 μM ATP was added and incubated for another 30 min. Kinase-Glo™Reagent was also added to detect the remaining ATP recorded from luminescence measurements (RLU). In parallel, the VicK protein with no addition of compounds was used as a control, and the mixture with compounds excluding the VicK protein served as another control. The rate of protein phosphorylation (Rp) inhibition by the compounds was calculated from Equation (1).
(1) Rp=1−RLU(compound+ATP+Reagent) −RLU(compound+ATP+vick+Reagent)/RLU(ATP +Reagent)−RLU(ATP+vick+Reagent)×100%
The half maximal inhibitory concentration (IC50), which is the concentration of inhibition of 50% VicK protein autophosphorylation, was determined by GraphPad Prism 5 (Qin et al., [2006]).

Cytotoxicity assay (MTT) = type: cell-based; conditions: African green monkey
Procedure: The cytotoxicity of the drugs to Vero cells (African green monkey kidney cells) was detected as previously described (Huang et al., [2012]) with minor modifications. In 96-well cell culture plates, the cells (~10^3 cells per well) were exposed to the serially diluted drugs for 48 h. Then, relative cell numbers were assayed by co-incubation with 3-(4, 5-dimethylthiazol-2-yl)-2, 5-diphenyltetrazolium bromide for 4 h at 37°C in 5% CO2. Purple formazan salts were dissolved with DMSO after incubation. The absorbance of each well was measured at 595 nm and then converted to percentages of the control (cells treated with 1% DMSO). The concentration of the derivatives with 50% cytotoxicity for Vero cells (CC50) was calculated using GraphPad Prism 5 (San Diego, CA).

S. pyogenes = test: MIC against S. pyogenes; type: cell-based; conditions: Streptococcus pyogenes; S. pyogenes clinical isolate; 10^6 CFU/ml; read-out: MIC
Procedure: as §1

S. pneumoniae = test: Checkerboard test with erythromycin or tetracycline against S. pneumoniae; type: cell-based, Streptococcus pneumoniae
Procedure: The antimicrobial effects of different combinations of two antimicrobial agents were assayed using the checkerboard test (Bajaksouzian et al., [1997]). Each experiment was repeated thrice. […] The FIC index (FICI) was calculated using the following formula:
as §3, §4

S. pseudopneumoniae = test: MIC against S. pseudopneumoniae; type: cell-based; conditions: Streptococcus pseudopneumoniae; S. pseudopneumoniae clinical isolate; 10^6 CFU/ml; read-out: MIC
Procedure: as §1

S. mutans = test: MIC against S. mutans; type: cell-based; conditions: Streptococcus mutans; S. mutans clinical isolate; 10^6 CFU/ml; read-out: MIC
Procedure: as §1

S. pneumoniae NCTC7466 [3] = test: MIC against S. pneumoniae NCTC7466 (D39); type: cell-based; conditions: Streptococcus pneumoniae, S. pneumoniae NCTC7466 (D39), read-out: MIC
Procedure: as §1

S. mitis = test: MIC against S. mitis; type: cell-based; conditions: Streptococcus mitis; S. mitis clinical isolate; 10^6 CFU/ml; read-out: MIC
Procedure: as §1

[4] = system: clinical S. pneumoniae 19A (CMCC31689); test: Mouse colonization model, serotype 19A; type: in vivo, BALB/c mice; conditions: 19A
Procedure: (§5) In colonization models, the mice were intranasally challenged by 20 μL of clinical drug-resistant strains (pneumococcal serotype 19F or 19A, 1.5 × 10^8 CFU). An hour later, the mice were intraperitoneally injected with 100 μL drugs (2 × MIC) alone or in combination with PEN (2 × MIC). These injections were continued thrice a day for 3 d. Nasal wash and lung tissues were obtained to analyze the bacteria load at 24, 48, and 72 h after drug infection. Then 100 μL aliquots of the samples diluted were plated on blood agar plates. The colonies were counted after incubation overnight at 37°C with 5% CO2.

S. aureus = test: Checkerboard test with penicillin against S. aureus; type: cell-based, Staphylococcus aureus; conditions: agent alone
Procedure: as §1, §2, §3, §4

[5] = system: clinical S. pneumoniae 19F (CMCC31693); test: Mouse colonization model, serotype 19F; type: in vivo, BALB/c mice; conditions: 19F
Procedure: as §5

[6] = Penicillin intermediate (n = 12)
[7] = in combination with Erythromycin
[8] = in combination with Tetracycline

T1 sequence (Q8DPL8 whole entry): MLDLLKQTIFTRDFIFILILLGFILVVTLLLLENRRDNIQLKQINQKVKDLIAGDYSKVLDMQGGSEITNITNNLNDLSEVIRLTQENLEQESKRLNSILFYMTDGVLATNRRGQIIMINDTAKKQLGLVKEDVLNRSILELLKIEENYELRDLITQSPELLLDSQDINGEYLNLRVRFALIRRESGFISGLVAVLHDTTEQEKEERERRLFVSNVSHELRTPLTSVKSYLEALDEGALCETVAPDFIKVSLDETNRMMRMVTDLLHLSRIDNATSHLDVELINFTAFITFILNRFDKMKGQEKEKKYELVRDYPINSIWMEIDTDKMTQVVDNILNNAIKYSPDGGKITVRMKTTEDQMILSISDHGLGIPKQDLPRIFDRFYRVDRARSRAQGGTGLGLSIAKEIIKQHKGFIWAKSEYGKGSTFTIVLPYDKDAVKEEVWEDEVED

Compound	Mean survival of mice ± SEM (S. pneumoniae NCTC7466 [1])	MIC ([2]; strain 652336)	MIC ([2]; strain 736007)	MIC ([2]; strain 8364981)	MIC ([2]; strain 12092624)	MIC of pneumococcal strains, Range (pneumococcal strains; [6])	MIC of pneumococcal strains, Range (pneumococcal strains; Penicillin resistant (n = 15))	MIC of pneumococcal strains, Range (pneumococcal strains; Penicillin susceptible (n = 7))	MIC50 (pneumococcal strains; [6])	MIC90 (pneumococcal strains; [6])	MIC50 (pneumococcal strains; Penicillin resistant (n = 15))	MIC90 (pneumococcal strains; Penicillin resistant (n = 15))	MIC50 (pneumococcal strains; Penicillin susceptible (n = 7))	MIC90 (pneumococcal strains; Penicillin susceptible (n = 7))	MIC (S. pyogenes)	FICI (S. pneumoniae; [7])	FICI (S. pneumoniae; [8])	MIC (S. pseudopneumoniae)	MIC (S. mutans)	MIC (S. pneumoniae NCTC7466 [3])	further results
CCCCCCCC=NNc1ccc([N+](=O)[O-])cc1[N+](=O)[O-] [Compound 2, Octanal 2,4-dinitrophenylhydrazone]	42.1 ± 4.1 h	154 µg/mL	154 µg/mL	77 µg/mL	154 µg/mL	38 to 154 µg/mL	77 to 616 µg/mL	76 to 152 µg/mL	77 µg/mL	154 µg/mL	308 µg/mL	616 µg/mL	152 µg/mL	152 µg/mL	308 µg/mL	2	0.75	154 µg/mL	616 µg/mL	38.5 µg/mL	IC50 (full-length VicK protein; IC50 (inhibition of VicK ATPase activity / autophosphorylation)): 5.4 µM; IC50 (full-length VicK protein; IC50 (inhibition of VicK ATPase activity / autophosphorylation), value in parentheses): 5.35 µM; CC50 at 48 h (Cytotoxicity assay (MTT); Vero cells): > 4000 µM; MIC (S. pneumoniae NCTC7466 [3]; value in parentheses): 125 µM; MIC (S. mitis): 308 µg/mL
CSC[C@H]1O[C@@H](n2cnc3c(N)ncnc32)[C@H](O)[C@@H]1O [Compound 1, 5′-(Methylthio)-5′-deoxyadenosine]	49.5 ± 3.93 h	297 µg/mL	297 µg/mL	148 µg/mL	297 µg/mL	74 to 594 µg/mL	296.8 to 593.6 µg/mL	74 to 148 µg/mL	148 µg/mL	296 µg/mL	297 µg/mL	297 µg/mL	74 µg/mL	148 µg/mL	148 µg/mL	2	0.9	148 µg/mL	594 µg/mL	37.1 µg/mL	IC50 (full-length VicK protein; read-out: IC50 (inhibition of VicK ATPase activity / autophosphorylation) (converted)): 3.8 µM; IC50 (full-length VicK protein; value in parentheses, read-out: IC50 (inhibition of VicK ATPase activity / autophosphorylation) (converted)): 3.77 µM; CC50 at 48 h (Cytotoxicity assay (MTT); Vero cells (African green monkey kidney cells)): > 16000 µM; MIC (S. pneumoniae NCTC7466 [3]; value in parentheses): 124 µM; MIC (S. mitis): 148 µg/mL
CC1(C)S[C@@H]2[C@H](NC(=O)Cc3ccccc3)C(=O)N2[C@H]1C(=O)O [Penicillin, penicillin, reference compound]	–	–	–	–	–	–	–	–	–	–	–	–	–	–	–	–	–	–	–	–	Mean log CFU at site of infection ([4]; Lung, 24 h, control 4.85): 4.8 log CFU; Mean log CFU at site of infection ([4]; Lung, 48 h, control 6.12): 4.5 log CFU; Mean log CFU at site of infection ([4]; Lung, 72 h, control 6.29): 4.89 log CFU; Mean log CFU at site of infection ([4]; NW (nasal wash), 24 h, i.p. three times a day for 3 days, control 7.29): 6.44 log CFU; Mean log CFU at site of infection ([4]; NW, 48 h, control 5.97): 5.88 log CFU; Mean log CFU at site of infection ([4]; NW, 72 h, control 6.01): 5.34 log CFU; MIC, Alone ([2]; strain 652336): 4.4 µg/mL; MIC, Alone ([2]; strain 736007): 7.1 µg/mL; MIC, Alone ([2]; strain 8364981): 3.56 µg/mL; MIC, Alone ([2]; strain 12092624): 3.56 µg/mL; MIC, Alone (S. aureus; MRSA8506305): 6682 µg/mL; MIC, Alone (S. aureus; MRSA8548991): 3339 µg/mL; MIC, Alone (S. aureus; S. aureus ATCC29213): 52 µg/mL; Mean log CFU at site of infection ([5]; Lung, 24 h, control 2.82): 1 log CFU; Mean log CFU at site of infection ([5]; Lung, 48 h, control 7.57): 2.58 log CFU; Mean log CFU at site of infection ([5]; Lung, 72 h, control 4.95): 3.22 log CFU; Mean log CFU at site of infection ([5]; NW (nasal wash), 24 h, i.p. three times a day for 3 days, control 6.72): 6.21 log CFU; Mean log CFU at site of infection ([5]; NW, 48 h, control 6.27): 2.1 log CFU; Mean log CFU at site of infection ([5]; NW, 72 h, control 7.09): 6.12 log CFU

Source: article PMC4438233, “Antibacterial effects of Traditional Chinese Medicine monomers against Streptococcus pneumoniae via inhibiting pneumococcal histidine kinase (VicK)” (Frontiers in Microbiology, 2015)
